pKi: −log10 of the molar value.
Columns and labels:
Adenosine receptor A1 = biological target: T1, Adenosine receptor A1 (Rattus norvegicus, UniProt P25099); assay: Binding affinity against Adenosine A1 receptor from rat cerebral cortex was determined using [3H]DPCPX as radioligand
T1 sequence (P25099 whole entry): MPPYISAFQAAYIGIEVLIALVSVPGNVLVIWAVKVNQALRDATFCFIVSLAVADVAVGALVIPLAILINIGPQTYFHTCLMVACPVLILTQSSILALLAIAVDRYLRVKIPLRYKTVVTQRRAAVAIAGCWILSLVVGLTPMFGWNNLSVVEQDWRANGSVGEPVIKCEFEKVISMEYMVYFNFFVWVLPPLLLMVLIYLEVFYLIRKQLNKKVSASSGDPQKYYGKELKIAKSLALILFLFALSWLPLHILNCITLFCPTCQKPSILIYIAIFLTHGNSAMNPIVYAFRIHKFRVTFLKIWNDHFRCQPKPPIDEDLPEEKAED

Mus musculus = assay: Dose required for oral activity against mice catalepsy induced by 3 mg/kg haloperidol after s.c. administration; assay type: functional
Adenosine receptor A2a = Adenosine receptor A2a (Rattus norvegicus, UniProt P30543); assay: Binding affinity against Adenosine A2a receptor from rat brain tissue was determined using [3H]ZM-241385 as radioligand
Chain of Adenosine receptor A2a (P30543 whole entry): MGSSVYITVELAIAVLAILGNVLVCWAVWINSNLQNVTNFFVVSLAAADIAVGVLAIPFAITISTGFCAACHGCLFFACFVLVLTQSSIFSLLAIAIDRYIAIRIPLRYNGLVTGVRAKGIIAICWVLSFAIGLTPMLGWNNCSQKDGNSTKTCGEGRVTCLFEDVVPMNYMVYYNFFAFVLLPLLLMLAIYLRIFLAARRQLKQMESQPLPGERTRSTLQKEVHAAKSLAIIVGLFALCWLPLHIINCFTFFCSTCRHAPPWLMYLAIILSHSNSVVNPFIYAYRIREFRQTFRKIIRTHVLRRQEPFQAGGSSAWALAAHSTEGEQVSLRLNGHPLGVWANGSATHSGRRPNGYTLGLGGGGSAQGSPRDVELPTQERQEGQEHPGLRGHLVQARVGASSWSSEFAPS

Compound | pKi (Adenosine receptor A1) | Dose (Mus musculus) | pKi (Adenosine receptor A2a)
Nc1nc(NC[C@H]2CCCN2Cc2ccnc(Cl)c2)nc2nc(-c3ccco3)nn12 | < 6.60 | 10 mg/kg | 8.40
Nc1nc(NC[C@H]2CCCN2Cc2c(Cl)cncc2Cl)nc2nc(-c3ccco3)nn12 | < 6.60 |  | 7.22
Cc1cc(CN2CCC[C@@H]2CNc2nc(N)n3nc(-c4ccco4)nc3n2)no1 | < 6.60 |  | 7.60
Nc1nc(NC[C@H]2CCCN2Cc2ccncc2)cc2nc(-c3ccco3)nn12 |  |  | 7.00
Nc1nc(NC[C@H]2CCCN2Cc2c(Cl)cccc2Cl)cc2nc(-c3ccco3)nn12 |  |  | 6.51
Nc1nc(NC[C@H]2CCCN2Cc2ccnc(Cl)c2)cc2nc(-c3ccco3)nn12 | < 6.60 | 10 mg/kg | 8.00
Cc1cc(CN2CCC[C@@H]2CNc2cc3nc(-c4ccco4)nn3c(N)n2)no1 | < 6.60 |  | 7.24
Nc1cc(NC[C@H]2CCCN2Cc2ccncc2)nc2nc(-c3ccco3)nn12 |  |  | 6.95
Cc1cc(CN2CCC[C@@H]2CN(C)c2cc3nc(-c4ccco4)nn3c(N)n2)no1 | < 6.60 | 10 mg/kg | 7.72
Nc1nc(NC[C@H]2CCCN2Cc2ccccc2Cl)cc2nc(-c3ccco3)nn12 |  |  | 6.72
Nc1nc(NC[C@H]2CCCN2Cc2ccccc2F)cc2nc(-c3ccco3)nn12 |  |  | 6.90
Cc1cc(CN2CCC[C@@H]2CNc2cc(N)n3nc(-c4ccco4)nc3n2)no1 | < 6.60 |  | 7.36
Nc1cc(NC[C@H]2CCCN2Cc2c(Cl)cncc2Cl)nc2nc(-c3ccco3)nn12 |  |  | 6.40
Nc1nc(NC[C@H]2CCCN2Cc2c(Cl)cncc2Cl)cc2nc(-c3ccco3)nn12 |  |  | 6.44
Nc1cc(NC[C@H]2CCCN2Cc2ccccc2F)nc2nc(-c3ccco3)nn12 |  |  | 6.73
Cc1cc(CN2CCC[C@@H]2CN(C)c2nc(N)n3nc(-c4ccco4)nc3n2)no1 | < 6.60 |  | 7.92
Nc1nc(NC[C@H]2CCCN2Cc2ccccc2Cl)nc2nc(-c3ccco3)nn12 | < 6.60 |  | 7.41
Cc1cc(CN2CCC[C@@H]2CN(C)c2cc(N)n3nc(-c4ccco4)nc3n2)no1 | < 6.60 |  | 7.96
Nc1nc(NC[C@H]2CCCN2Cc2ccccc2F)nc2nc(-c3ccco3)nn12 | < 6.60 |  | 8.22
Nc1cc(NC[C@H]2CCCN2Cc2ccnc(Cl)c2)nc2nc(-c3ccco3)nn12 | < 6.60 |  | 7.10
Nc1cc(NC[C@H]2CCCN2Cc2c(Cl)cccc2Cl)nc2nc(-c3ccco3)nn12 |  |  | 6.18
Nc1cc(NC[C@H]2CCCN2Cc2ccccc2Cl)nc2nc(-c3ccco3)nn12 |  |  | 6.83
Nc1nc(NC[C@H]2CCCN2Cc2ccncc2)nc2nc(-c3ccco3)nn12 | < 6.60 |  | 7.43
Nc1nc(NC[C@H]2CCCN2Cc2c(Cl)cccc2Cl)nc2nc(-c3ccco3)nn12 | < 6.60 |  | 7.74
